Read-outs that look alike come from different tables or passages of the source.
Legend:
[1] = target: T1, human GLP-1 receptor (hGLP-1R) (Homo sapiens, UniProt P43220); assay: [125I]-GLP-1 binding, SPA with membranes of HEK293 cells expressing hGLP-1R; details: human GLP-1R; geometric mean (SEM, n); read-out: Binding Affinity Ki, nM (SEM, n) hGLP-1R
T1 construct: expressed in transfected cells; crude membranes

[2] = target: T2, hGCGR (Homo sapiens, UniProt P47871); assay: Functional cAMP formation (HTRF) in HEK-293 clonal cells expressing hGCGR, 0.1% bovine casein, without or with 1.0% human serum albumin; format: cell-based; details: geometric mean, read-out: hGCGR EC50, nM (SEM, n)
T2 construct: expressed in transfected cells
T2 sequence (P47871 26-477): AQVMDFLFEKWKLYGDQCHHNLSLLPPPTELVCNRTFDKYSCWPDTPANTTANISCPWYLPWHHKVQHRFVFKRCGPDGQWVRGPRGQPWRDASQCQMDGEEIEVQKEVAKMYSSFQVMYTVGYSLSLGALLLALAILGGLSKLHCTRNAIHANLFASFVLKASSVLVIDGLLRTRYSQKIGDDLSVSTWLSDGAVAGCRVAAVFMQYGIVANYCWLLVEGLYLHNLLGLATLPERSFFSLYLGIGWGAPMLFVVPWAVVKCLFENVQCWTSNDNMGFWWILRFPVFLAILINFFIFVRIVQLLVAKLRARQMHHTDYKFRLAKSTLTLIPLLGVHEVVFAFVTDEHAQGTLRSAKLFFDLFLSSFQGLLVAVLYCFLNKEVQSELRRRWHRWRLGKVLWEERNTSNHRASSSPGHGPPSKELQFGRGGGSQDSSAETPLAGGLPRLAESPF
Method in brief: (§1)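 Readings of the HTRF 665/620 nm ratio, which falls as cAMP rises, were converted to nM cAMP using a standard curve after 30 min peptide exposure at 37° C.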

[3] = target: hGLP-1R (Homo sapiens, UniProt P43220); assay: Functional cAMP formation (HTRF) in HEK-293 clonal cells expressing hGLP-1R, 0.1% bovine casein, without or with 1.0% human serum albumin; format: cell-based; parameters: expressed in transfected cells; details: 37° C.; for EC50: 0.1% bovine casein and 1.0% human serum albumin, geometric mean, read-out: hGLP-1R EC50, nM (SEM, n); for Emax: read-out: hGLP-1R Emax, % ± SEM
Sequence of hGLP-1R (P43220 24-463): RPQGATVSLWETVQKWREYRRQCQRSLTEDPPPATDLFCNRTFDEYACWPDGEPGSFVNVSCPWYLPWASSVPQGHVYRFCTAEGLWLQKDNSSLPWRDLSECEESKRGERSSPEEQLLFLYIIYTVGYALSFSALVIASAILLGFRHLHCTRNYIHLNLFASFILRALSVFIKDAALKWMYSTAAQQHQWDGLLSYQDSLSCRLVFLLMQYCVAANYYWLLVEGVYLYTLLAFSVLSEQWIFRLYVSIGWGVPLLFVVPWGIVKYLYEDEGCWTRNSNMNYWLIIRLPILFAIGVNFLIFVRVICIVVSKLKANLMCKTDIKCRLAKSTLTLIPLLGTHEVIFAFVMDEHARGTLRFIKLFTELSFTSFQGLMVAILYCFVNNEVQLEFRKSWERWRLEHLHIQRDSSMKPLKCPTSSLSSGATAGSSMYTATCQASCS
Method in brief: as §1

[4] = target: T3, human Gcg receptor (hGcgR) (Homo sapiens, UniProt P47871); assay: [125I]-Glucagon binding, SPA with membranes of HEK293 cells expressing hGcgR; details: human GcgR; geometric mean (SEM, n); read-out: Binding Affinity Ki, nM (SEM, n) hGCGR
T3 construct: expressed in transfected cells; crude membranes
T3 sequence (P47871 26-477): as the sequence (P47871 26-477) above

[5] = target: T4, hGIPR (Homo sapiens, UniProt P48546); assay: Functional cAMP formation (HTRF) in HEK-293 clonal cells expressing hGIPR, 0.1% bovine casein, without or with 1.0% human serum albumin; format: cell-based; details: for EC50: geometric mean, read-out: hGIPR EC50, nM (SEM, n); for Emax: read-out: hGIPR Emax, % ± SEM
T4 construct: expressed in transfected cells
T4 sequence (P48546 22-466): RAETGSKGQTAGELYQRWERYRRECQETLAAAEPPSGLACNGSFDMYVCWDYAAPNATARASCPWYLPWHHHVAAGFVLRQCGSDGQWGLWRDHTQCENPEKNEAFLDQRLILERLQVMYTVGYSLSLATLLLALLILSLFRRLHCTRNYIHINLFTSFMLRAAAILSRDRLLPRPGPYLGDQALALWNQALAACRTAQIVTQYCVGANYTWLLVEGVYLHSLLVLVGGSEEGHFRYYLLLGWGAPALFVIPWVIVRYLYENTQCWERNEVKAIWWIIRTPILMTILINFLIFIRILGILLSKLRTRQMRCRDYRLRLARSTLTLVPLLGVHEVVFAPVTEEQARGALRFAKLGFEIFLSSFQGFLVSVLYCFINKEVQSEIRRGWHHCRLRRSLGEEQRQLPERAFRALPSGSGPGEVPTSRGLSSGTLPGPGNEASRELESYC
Method in brief: as §1

[6] = 0.1% bovine casein and 1.0% human serum albumin, 37° C.
[7] = cAMP, incubated at 37° C., 0.1% bovine casein (no human serum albumin)
[8] = HEK293, 0.1% bovine casein and 1.0% human serum albumin, percent of maximal response to GLP-1(7-36)NH2
[9] = HEK293, percent of maximal response to GLP-1(7-36)NH2, 0.1% bovine casein, arithmetic mean

T1 sequence (P43220 24-463): as the sequence (P43220 24-463) above

SMILES | Ki [1] [nM] | EC50 [2, 6] [nM] | EC50 [2, 7] [nM] | EC50 [3] [nM] | Emax [3, 8] [%] | Emax [3, 9] [%] | Ki [4] [nM] | EC50 [5, 6] [nM] | Emax ([5]; HEK293, 0.1% bovine casein and 1.0% human serum albumin, 37° C., percent of maximal response to GIP(1-42)NH2) [%] | Emax ([5]; HEK293, percent of maximal response to GIP(1-42)NH2, 37° C., 0.1% bovine casein, arithmetic mean) [%] | EC50 [5, 7] [nM]
CC[C@H](C)[C@H](NC(=O)[C@H](CC(C)C)NC(=O)[C@](C)(Cc1ccc(O)cc1)NC(=O)[C@@H](CCC(=O)O)NC(=O)[C@@H](NC(=O)[C@H](Cc1ccccc1)NC(=O)[C@H](CCC(=O)O)NC(=O)C(C)(C)NC(=O)[C@H](CCC(N)=O)NC(=O)[C@H](C)NC(=O)[C@H](CCCCNC(=O)COCCOCCNC(=O)COCCOCCNC(=O)CC[C@H](NC(=O)CCCCCCCCCCCCC(=O)O)C(=O)O)NC(=O)[C@H](CCCN)NC(=O)[C@H](CC(=O)O)NC(=O)[C@H](CC(C)C)NC(=O)[C@](C)(CC(C)C)NC(=O)[C@@H](NC(=O)[C@H](CO)NC(=O)[C@H](Cc1ccncc1)NC(=O)[C@H](CC(=O)O)NC(=O)[C@H](CO)NC(=O)[C@@H](NC(=O)[C@](C)(Cc1ccccc1F)NC(=O)[C@@H](NC(=O)CNC(=O)[C@H](CCC(=O)O)NC(=O)C(C)(C)NC(=O)[C@@H](N)Cc1ccc(O)cc1)[C@@H](C)O)[C@@H](C)O)[C@@H](C)CC)[C@@H](C)CC)C(=O)N[C@@H](CCC(=O)O)C(=O)NCC(=O)NCC(=O)N[C@@H](CCCCNC(=O)COCCOCCNC(=O)COCCOCCNC(=O)CC[C@H](NC(=O)CCCCCCCCCCCCC(=O)O)C(=O)O)C(=O)N[C@@H](CO)C(=O)N[C@@H](CO)C(=O)NCC(=O)N[C@@H](C)C(=O)N1CCC[C@H]1C(=O)N1CCC[C@H]1C(=O)N1CCC[C@H]1C(=O)N[C@@H](CO)C(N)=O [Example 1] | 2.33 | > 9950 | > 9950 | 30.7 | 94.3 ± 4.39 | 97 ± 4.47 | > 969 | 0.696 | 87.5 ± 3.24 | 90.2 ± 2.82 | 0.0145
CC[C@H](C)[C@H](NC(=O)[C@H](CC(C)C)NC(=O)[C@](C)(Cc1ccc(O)cc1)NC(=O)[C@@H](CCC(=O)O)NC(=O)[C@@H](NC(=O)[C@H](Cc1ccccc1)NC(=O)[C@H](CCC(=O)O)NC(=O)C(C)(C)NC(=O)[C@H](CCC(N)=O)NC(=O)[C@H](C)NC(=O)[C@H](CCCCNC(=O)COCCOCCNC(=O)COCCOCCNC(=O)COCCOCCNC(=O)CC[C@H](NC(=O)CCCCCCCCCCCCC(=O)O)C(=O)O)NC(=O)[C@H](CCCN)NC(=O)[C@H](CC(=O)O)NC(=O)[C@H](CC(C)C)NC(=O)[C@](C)(CC(C)C)NC(=O)[C@@H](NC(=O)[C@H](CO)NC(=O)[C@H](Cc1ccncc1)NC(=O)[C@H](CC(=O)O)NC(=O)[C@H](CO)NC(=O)[C@@H](NC(=O)[C@](C)(Cc1ccccc1F)NC(=O)[C@@H](NC(=O)CNC(=O)[C@H](CCC(=O)O)NC(=O)C(C)(C)NC(=O)[C@@H](N)Cc1ccc(O)cc1)[C@@H](C)O)[C@@H](C)O)[C@@H](C)CC)[C@@H](C)CC)C(=O)N[C@@H](CCC(=O)O)C(=O)NCC(=O)NCC(=O)N[C@@H](CCCCNC(=O)COCCOCCNC(=O)COCCOCCNC(=O)COCCOCCNC(=O)CC[C@H](NC(=O)CCCCCCCCCCCCC(=O)O)C(=O)O)C(=O)N[C@@H](CO)C(=O)N[C@@H](CO)C(=O)NCC(=O)N[C@@H](C)C(=O)N1CCC[C@H]1C(=O)N1CCC[C@H]1C(=O)N1CCC[C@H]1C(=O)N[C@@H](CO)C(N)=O [Example 30] | 2.66 | > 9950 | > 9950 | 18.3 | 96.5 ± 0.219 | 97.8 ± 10.7 | > 966 | 0.337 |  |  | 0.0175
